Data on two molecules can be found in patent US9371336B2, “Compounds for treating spinal muscular atrophy” (PTC Therapeutics Inc., priority 2012, dated 2016).

The test system of assay [1] is Smn protein. In words: Smn protein in tissues of neonatal Δ7 SMA mice (HTRF). It counts as in vivo, mouse. The settings on record: neonatal SMA Δ7 homozygous knockout mice. The procedure: (§1) The Smn HTRF protein assay is used to quantify the level of Smn protein in mouse tissues.
(§2) The tissue samples in Safe-Lock tubes are weighed and the volume of RIPA buffer containing the protease inhibitor cocktail is added based on the weight to volume ratios for each type of tissue: Brain (50 mg/mL), Muscle (50 mg/mL) and Spinal Cord (25 mg/mL).
(§3) Tissues are homogenized using the TissueLyzer by bead milling. 5 mm stainless steel beads are added to the sample and shaken vigorously for 5 minutes at 30 Hz in the TissueLyzer. The samples are then centrifuged for 20 minutes at 14,000×g in a microcentrifuge and the homogenates transferred to the PCR plate. The homogenates are diluted in RIPA buffer to approximately 1 mg/mL for HTRF and approximately 0.5 mg/mL for total protein measurement using the BCA protein assay. For the SMN HTRF assay, 35 μL of the tissue homogenate is transferred to a 384-well plate containing 5 μL of the antibody solution (1:100 dilution of each of the anti-SMNd2 and anti-SMN Kryptate in reconstitution buffer). […] Fluorescence for each well of the plate at 665 nm and 620 nm is measured on an EnVision multilabel plate reader (Perkin-Elmer). The total protein in the tissue homogenate is measured using the BCA assay according to the manufacturer's protocol.
(§4) The normalized fluorescence signal is calculated for each sample, Blank and vehicle control well by dividing the signal at 665 nm by the signal at 620 nm. Normalizing the signal accounts for possible fluorescence quenching due to the matrix effect of the tissue homogenate. The ΔF value (a measurement of Smn protein abundance as a percent value) for each tissue sample well is calculated by subtracting the normalized average fluorescence for the Blank control wells from the normalized fluorescence for each tissue sample well, then dividing this difference by the normalized average fluorescence for the Blank control wells and multiplying the resulting value by 100. The ΔF value for each tissue sample well is divided by the total protein quantity (determined using the BCA assay) for that tissue sample. […]

Assay [2] concerns gems (Smn-dependent nuclear speckles) in SMA patient fibroblast cells. In words: Gems count (Smn-dependent nuclear speckle count) assay. It counts as cell-based, human. The settings on record: SMA Type 1 patient cells, 48 hour, fluorescence microscopy (FIG. 7). The source says:
The level of Smn protein directly correlates with the amount of nuclear foci, also known as gems, produced upon staining the cell with a fluorescently labeled anti-Smn antibody (Liu and Dreyfuss, EMBO J., 1996, 15:3555). Gems are multi-protein complexes whose formation is nucleated by the Smn protein and the gems count assay is used to evaluate the level of Smn protein in the cell. As described herein, the gems count assay is used to quantify the level of Smn protein in SMA patient fibroblast cells treated with a test compound.
Cells are thawed and incubated in DMEM-10% FBS for 72 hours, then trypsinized, counted and resuspended to 100,000 cells/mL in DMEM-10% FBS. The cell suspension (2 mL) is plated in a 6-well cell culture plate with a sterile cover slip and incubated for 3 to 5 hours. Test compounds are serially diluted 3.16-fold in 100% DMSO to generate a 7-point dilution curve. […]
Cell culture medium is aspirated from the wells containing cover slips and gently washed three times with cold PBS. […] The number of gems is counted per ≧150 nuclei and % activation is calculated using DMSO and 10 nM bortezomib as controls. For each test compound, the cells are examined at all wavelengths to identify test compounds with inherent fluorescence.

The test system of assay [3] is Smn protein. In words: Smn protein assay in tissues of adult C/C-allele SMA mice (HTRF). It counts as in vivo, mouse. The settings on record: 50 mg/kg BID for 10 days, relative to vehicle group, p<0.001 by ANOVA, n=10 (FIG. 8). The procedure: as §1, §2, §3, §4
Background: TR-FRET usually uses a lanthanide donor and a delayed reading to cut background.

For the molecule `Cc1ccc2nc(-c3cc4ccc(N5CCN(C)CC5)nc4oc3=O)cn2c1` [Cpd 27, 3-(6-methylimidazo[1,2-a]pyridin-2-yl)-7-(4-methylpiperazin-1-yl)-2H-pyrano[2,3-b]pyridin-2-one], the “total protein normalized Smn level, brain” value with Smn protein [1] (QD IP for 7 days (PND 3 to PND 9) (FIG. 9a)) was “dose dependently increased”. Besides, the “total protein normalized Smn level, spinal cord” value with Smn protein [1] (QD IP for 7 days (PND 3 to PND 9) (FIG. 9b)) is on record as “dose dependently increased”. In addition, the “total protein normalized Smn level, muscle” value in the assay on Smn protein [1] (QD IP for 7 days (PND 3 to PND 9) (FIG. 9c)) was “dose dependently increased”.

Consider `CN1CCN(c2ccc3cc(-c4nc5c(Cl)cccc5s4)c(=O)oc3n2)CC1` [Cpd 5, 3-(4-chloro-1,3-benzothiazol-2-yl)-7-(4-methylpiperazin-1-yl)-2H-pyrano[2,3-b]pyridin-2-one], for which the “gems (nuclear speckle count) relative to DMSO” value in assay [2] is given as “progressively more gems”. In the assay with Smn protein [3], the “total protein-normalized Smn level, brain” value is given as “increased”; the “total protein-normalized Smn level, muscle” value is recorded as “increased”; the “total protein-normalized Smn level, spinal cord” value was “increased”.
